According to publication PMC2858655, “Structural and Functional Characterization of Human Peripheral Nervous System Myelin Protein P2” (PLoS ONE, 2010):

What was measured:
[1] = target: T1, His-tagged P2 protein (His-P2) (Homo sapiens, UniProt P02689); test: intrinsic Trp fluorescence quenching; assay type: binding; conditions: 9.4 µM protein, 10 µM cholesterol, 1% ethanol, HEPES, 150 mM NaCl, pH 7.5, 120 min, room temperature, excitation 280 nm
T1 construct: gene PMP2; full length, N-terminal His6 tag with TEV site kept (pTH27), E. coli Rosetta(DE3)

[2] = target: T2, human myelin P2 protein (untagged) (Homo sapiens, UniProt P02689); test: X-ray crystallography, […] Å; assay type: binding; conditions: fatty acid carried over from E. coli, identity modelled from electron density; inside barrel cavity; pH 8.5
T2 construct: gene PMP2

| SMILES | decrease of fluorescence intensity [1] | X-ray crystallography, 1.85 Å [2] |
| --- | --- | --- |
| CC(C)CCC[C@@H](C)[C@H]1CC[C@H]2[C@@H]3CC=C4C[C@@H](O)CC[C@]4(C)[C@H]3CC[C@]12C [cholesterol] | ~ 25% |  |
| CCCCCCCCCCCCCCCC(=O)O [palmitate] |  | a palmitate molecule, well-defined in the electron density (Figure 2B,4A), was modeled into the lipid-binding cavity |
